Experimental data as given in paper PMC10846240, “Pharmacokinetic/pharmacodynamic integration of amphenmulin: a novel pleuromutilin derivative against Mycoplasma gallisepticum” (Microbiology Spectrum, 2023).
Converted amounts (≈) assume the structure as drawn.

Tests used:
[1] = design: method as in PMID 32079232; settings: mice; cited from earlier work
[2] = tested on: M. gallisepticum S6 strain; assay: Susceptibility assay, agar dilution (MIC, MIC99, MPC); type: cell-based, Mycoplasma gallisepticum; design: MPC: unit not given here
Procedure: (§1) The minimum inhibitory concentration (MIC) of amphenmulin against M. gallisepticum S6 strain was determined with reference to the protocols previously reported ([16], [17]). The broth microdilution method was performed using 96-well plates to achieve a final titer of approximately 10^7 colony-forming units (CFU)/mL of M. gallisepticum in each well. The final concentrations tested of amphenmulin ranged from 0.488 × 10^−3 to 0.125 µg/mL. Concurrently, a growth control (without drug), an end-point control (blank medium), and a sterile control (sterile broth) were also implemented. […] For the agar dilution method, M. gallisepticum was inoculated and cultured on agar plates containing a twofold dilution series of amphenmulin concentrations, and the MIC was the lowest drug concentration that inhibited growth. Additionally, following the procedure of broth microdilution, the initial culture before incubation and the samples from wells where the color remained unchanged after 48 h of incubation were subjected to 10-fold serial dilutions. Each dilution sample (10 µL) was then plated on drug-free agar for colony counting.
We also determined the minimum concentration inhibiting colony formation by 99% (MIC99) of amphenmulin against the S6 strain by slightly modifying the existing methods ([18], [19]). […] By counting the colony growth of M. gallisepticum inoculated on these drug-containing agar plates and performing linear regression with drug concentration, we calculated the amphenmulin concentration that inhibits 99% growth of the S6 strain.
Furthermore, we determined the mutant prevention concentration (MPC) of amphenmulin against the S6 strain by agar dilution method ([20]). Briefly, M. gallisepticum at exponential phase was enriched to ≥10^9 CFU/mL by centrifugation and cultured as described above. The lowest drug concentration that inhibited mycoplasma growth in the agar plate was determined as the primary MPC (MPCpr), and the determination was repeated after linearly reducing the MPCpr to 0.5 MPCpr at 10% drug concentration. The final mycoplasma-free growth concentration was the MPC. All the experiments of the above pharmacodynamic studies were conducted in triplicate.

[3] = tested on: M. gallisepticum S6 strain; assay: Susceptibility assay, broth microdilution (MIC, MBC); type: cell-based, Mycoplasma gallisepticum
Procedure: as §1

[4] = tested on: M. gallisepticum; assay: In vitro dynamic model (one-compartment, first-order elimination); type: cell-based, Mycoplasma gallisepticum
Procedure: According to previous reports ([21][–][23]), an in vitro model compatible with M. gallisepticum growth and amphenmulin pharmacokinetics was developed ([24]). It comprised a reservoir chamber containing fresh, drug-free medium; a reaction chamber with a three-necked flask where amphenmulin interacts with M. gallisepticum, containing 300 mL of medium in the outer chamber (external compartment, EC) and 10 mL of M. gallisepticum culture (10^7 CFU/mL) in a semipermeable membrane chamber (internal compartment, IC); and a waste chamber collecting effluent, which were connected via tubing and controlled by a peristaltic pump (Fig. 2). In this model, the flow rate was calculated as 1.63 mL/min from the reaction chamber volume and amphenmulin’s elimination half-life (T1/2Ke) after intravascular administration in chickens, enabling dynamic changes in drug concentrations that simulate amphenmulin elimination in chickens and its activity against M. gallisepticum. The in vitro elimination of amphenmulin followed first-order kinetics:
where C0 is the initial amphenmulin concentration, C is the amphenmulin concentration at time t, k is the elimination rate constant, and t is the time after dosing. […]
The determination of amphenmulin in the medium referenced our laboratory’s method for extracting tiamulin ([25]) and was also detected by the HPLC-MS/MS method mentioned in the PK section.

[5] = design: method as in PMID 29722184, PMID 32079232; settings: cited from earlier work
[6] = tested on: M. gallisepticum; assay: PK/PD integration, inhibitory Sigmoid Emax model; type: cell-based, Mycoplasma gallisepticum; settings: for Emax: inhibitory Emax model
Procedure: Phoenix software was used to analyze the in vitro concentration–time data of amphenmulin and calculate the AUC and peak concentration (Cmax), which were combined with MIC to obtain PK/PD parameters. Concurrently, the anti-mycoplasma effect was derived from the dynamic time–kill curve, which was analyzed with the PK/PD index using an inhibitory Sigmoid Emax model as follows:
E=E0−(E0−Emax)×CeN/EC50N+CeN
E, anti-mycoplasma effect, the change in M. gallisepticum counts during 24 h of cultivation; E0, M. gallisepticum change in control (without drug); Emax, maximal effect produced by amphenmulin against M. gallisepticum during 24 h; Ce, PK/PD parameters (AUC/MIC or Cmax/MIC); EC50, the Ce value needed to produce 50% of maximal effect; N, Hill coefficient, the slope of the fitted curve.

[7] = Mycoplasmoides gallisepticum, S6STRAIN

C=C[C@]1(C)C[C@@H](OC(=O)CSc2ccccc2N)[C@]2(C)[C@H](C)CC[C@]3(CCC(=O)[C@H]32)[C@@H](C)[C@@H]1O [amphenmulin, 22-(2-amino-phenylsulfanyl)-22-deoxypleuromutilin]
oral bioavailability [1]: 13.65% | MPC relative to MIC99 [2]: about 6.5 times | MIC [2, 7]: 7.8 ng/mL (≈ 0.0161 µM) | MIC99 [2, 7]: 7.7 ng/mL (≈ 0.0159 µM) | MPC ([2]; agar dilution, inoculum 10^9 CFU/mL): 0.0500 | mutation selection window (MSW) ([2]; between MIC99 and MPC): 0.77 × 10^−2–0.05 µg/mL | MIC ([3]; Mycoplasmoides gallisepticum, S6STRAIN, broth microdilution, inoculum 10^7 CFU/mL, strain S6): 3.9 ng/mL (≈ 0.00803 µM) | MBC ([3]; Mycoplasmoides gallisepticum, S6STRAIN, inoculum 10^7 CFU/mL, reduction > 3 Log10CFU/mL after 48 h): 15.6 ng/mL (≈ 0.0321 µM) | MIC at inoculum levels of 107, 106, and 105 ([3]; early pre-experiments (response to reviewer)): no significant difference | mycoplasma numbers at the highest dose ([4]; counting limit): < 100 CFU/mL | maximum decrease of M. gallisepticum counts within 0–72 h ([4]; doses of 0.1–0.5 μg/mL): ≤ 2.82 Log10CFU/mL | acute toxicity [5]: practically non-toxic | AUC24 h/MIC target value ([6]; for a decrease of 1 Log10CFU/mL of M. gallisepticum): 904.05 h | Emax ([6]; index AUC24 h/MIC): −2.4214 Log10CFU/mL | Emax ([6]; index Cmax/MIC): −3.3571 Log10CFU/mL
